Assay results as given in patent US9408852B2, “Method of lowering serum uric acid levels with (S)-tofisopam” (PHARMOS CORPORATION, priority 2011, dated 2016).
Values joined by “and” are separate entries in the source; they are usually repeats but may differ in a detail not shown here. Equal values may be shown once.

Key:
Assay type in all cases: in vivo, human
serum uric acid = assay: Serum uric acid in male and female patients with hyperuricemia and gout, 7 days (Example 7)
Method: The study lasted 7 days, and patients were treated with placebo or 50 mg of enantiomerically-pure (S)-tofisopam once a day (qd) on Day 1 and Day 7 of the study, and with placebo or 50 mg of enantiomerically-pure (S)-tofisopam three times a day (tid) for Days 2 to 6 of the study. […] In Table 6, days indicated with a minus sign (e.g. D-1) indicate the time point corresponding to that number of days before treatment was initiated. For example, D-14 is the time point fourteen days before treatment was initiated.

serum creatinine = assay: Serum creatinine in male and female patients with hyperuricemia and gout, 7 days (Example 8)
Method: The study lasted 7 days, and patients were treated with placebo or 50 mg of enantiomerically-pure (S)-tofisopam once a day (qd) on Day 1 and Day 7 of the study, and with placebo or 50 mg of enantiomerically-pure (S)-tofisopam three times a day (tid) for Days 2 to 6 of the study. […] In Table 7, days indicated with a minus sign (e.g. D-1) indicate the time point corresponding to that number of days before treatment was initiated. For example, D-14 is the time point fourteen days before treatment was initiated.

[1] = test system: urinary uric acid excretion; assay: 24 h urinary uric acid excretion in patients with hyperuricemia and gout (Example 9); conditions: for Percent change in Uu (mg/24 h), amount of uric acid excreted into the urine over 24 hours / Percent change in Uu (mg/dL), concentration of uric acid in 24 hour urine: 50 mg qd Day 1 and 7, tid Days 2 to 6
Method: (§1) The study lasted 7 days, and patients were treated with placebo or 50 mg of enantiomerically-pure (S)-tofisopam once a day (qd) on Day 1 and Day 7 of the study, and with placebo or 50 mg of enantiomerically-pure (S)-tofisopam three times a day (tid) for Days 2 to 6 of the study. […] In Table 8, days indicated with a minus sign (e.g. D-1) indicate the time point corresponding to that number of days before treatment was initiated. For example, D-14 is the time point fourteen days before treatment was initiated.

[2] = test system: urinary creatinine excretion; assay: 24 h urinary creatinine excretion in patients with hyperuricemia and gout (Example 9); conditions: 50 mg qd Day 1 and 7, tid Days 2 to 6
Method: as §1

[3] = test system: fractional excretion of urate; assay: Fractional excretion of urate in patients with hyperuricemia and gout (Example 9); conditions: 50 mg qd Day 1 and 7, tid Days 2 to 6
Method: as §1

clearance creatinine = assay: Creatinine clearance in patients with hyperuricemia and gout (Example 9); conditions: 50 mg qd Day 1 and 7, tid Days 2 to 6
Method: as §1

[4] = 50 mg qd Day 1 and Day 7, tid Days 2 to 6, Day 15 (after treatment stopped), hyperuricemia and gout
[5] = 50 mg qd Day 1 and Day 7, tid Days 2 to 6, male and female patients with hyperuricemia and gout
[6] = after 7 days of 50 mg treatment, hyperuricemia and gout
[7] = 50 mg qd Day 1 and Day 7, tid Days 2 to 6, Day 1 6 h (Day 1 0 h = 0.0), hyperuricemia and gout
[8] = 50 mg qd Day 1 and Day 7, tid Days 2 to 6, Day 1 to Day 2: Day 1 0 h + Day 2, hyperuricemia and gout
[9] = 50 mg qd Day 1 and Day 7, tid Days 2 to 6, Day 2 (Day 1 0 h = 0.0), hyperuricemia and gout
[10] = 50 mg qd Day 1 and Day 7, tid Days 2 to 6, Day 3 (Day 1 0 h = 0.0), hyperuricemia and gout
[11] = 50 mg qd Day 1 and Day 7, tid Days 2 to 6, Day 4 (Day 1 0 h = 0.0), hyperuricemia and gout
[12] = 50 mg qd Day 1 and Day 7, tid Days 2 to 6, Day 5 (Day 1 0 h = 0.0), hyperuricemia and gout
[13] = 50 mg qd Day 1 and Day 7, tid Days 2 to 6, Day 6 (Day 1 0 h = 0.0), hyperuricemia and gout
[14] = 50 mg qd Day 1 and Day 7, tid Days 2 to 6, Day 6 to Day 7: Day 6 + Day 7, hyperuricemia and gout
[15] = 50 mg qd Day 1 and Day 7, tid Days 2 to 6, Day 7 (Day 1 0 h = 0.0), hyperuricemia and gout
[16] = 50 mg qd Day 1 and Day 7, tid Days 2 to 6, Day 8 (after treatment stopped), hyperuricemia and gout
[17] = individual patient (P#), [D 1 to D 2] from [D −2 to D −1]
[18] = individual patient (P#), [D 6 to D 7] from [D 1 to D 2]
[19] = mean (M) of patients, [D 1 to D 2] from [D −2 to D −1]
[20] = mean (M) of patients, [D 6 to D 7] from [D 1 to D 2]

Compound: CC[C@@H]1C(C)=NN=C(c2ccc(OC)c(OC)c2)c2cc(OC)c(OC)cc21 [(S)-tofisopam]
- Percent change in serum uric acid, individual patients (P# 1-13) (serum uric acid; [4]): 36.0% and 17.8% and 25.7% and −13.3% and 1.0% and 39.2% and 30.4% and 10.3% and 26.8%
- Percent change in serum uric acid, mean (M) of 13 patients (serum uric acid; [4]): 18.9%
- Effect on serum uric acid levels (serum uric acid; [5]): decreases
- Serum uric acid levels once treatment was stopped after 7 days (serum uric acid; [6]): began to increase again
- Percent change in serum creatinine, individual patients (P# 1-13) (serum creatinine; [7]): 10.1% and 0.9% and 2.9% and 0.0% (2×) and 1.8% and 5.7% and 4.8% and 10.3%
- Percent change in serum creatinine, mean (M) of 13 patients (serum creatinine; [7]): 2.5%
- Percent change in serum creatinine, individual patients (P# 1-13) (serum creatinine; [8]): 4.4% and 0.9% and 0.5% (2×) and −1.0% and 2.3% and 0.8% and −1.3% and 6.7%
- Percent change in serum creatinine, mean (M) of 13 patients (serum creatinine; [8]): 1.1%
- Percent change in serum creatinine, individual patients (P# 1-13) (serum creatinine; [9]): 8.9% and 1.9% and 1.0% and −2.0% and 4.5% and 0.9% and 1.6% and −2.6% and 13.3%
- Percent change in serum creatinine, mean (M) of 13 patients (serum creatinine; [9]): 2.1%
- Percent change in serum creatinine, individual patients (P# 1-13) (serum creatinine; [10]): 7.6% and 3.7% and 13.6% and 2.0% and 16.2% and 10.4% and 4.8% and 17.9% and 24.0% and 14.9%
- Percent change in serum creatinine, mean (M) of 13 patients (serum creatinine; [10]): 10.1%
- Percent change in serum creatinine, individual patients (P# 1-13) (serum creatinine; [11]): 3.8% and −5.6% and 4.9% and −2.0% and 21.6% and −2.8% and 3.2% and 14.1% and 18.7%
- Percent change in serum creatinine, mean (M) of 13 patients (serum creatinine; [11]): 6.1%
- Percent change in serum creatinine, individual patients (P# 1-13) (serum creatinine; [12]): −5.1% and −3.7% and 8.7% and 9.8% and 23.4% and 0.9% and 14.3% and 7.7% and 24.0%
- Percent change in serum creatinine, mean (M) of 13 patients (serum creatinine; [12]): 7.2%
- Percent change in serum creatinine, individual patients (P# 1-13) (serum creatinine; [13]): 17.7% and 7.4% and 2.9% and 4.9% and 9.9% and 0.0% and 6.3% and 7.7% and 18.7%
- Percent change in serum creatinine, mean (M) of 13 patients (serum creatinine; [13]): 8.0%
- Percent change in serum creatinine, individual patients (P# 1-13) (serum creatinine; [14]): 15.2% and 2.3% and 0.5% and 1.0% and 10.4% and 5.7% and 7.1% and 5.1% and 12.0%
- Percent change in serum creatinine, mean (M) of 13 patients (serum creatinine; [14]): 5.8%
- Percent change in serum creatinine, individual patients (P# 1-13) (serum creatinine; [15]): 12.7% and −2.8% and −1.9% and −2.9% and 10.8% and 11.3% and 7.9% and 2.6% and 5.3%
- Percent change in serum creatinine, mean (M) of 13 patients (serum creatinine; [15]): 3.7%
- Percent change in serum creatinine, individual patients (P# 1-13) (serum creatinine; [16]): 10.1% and −7.4% and −8.7% and −6.9% and 0.9% and −2.8% and 12.7% and 12.8% and 24.0%
- Percent change in serum creatinine, mean (M) of 13 patients (serum creatinine; [16]): 3.8%
- Percent change in serum creatinine, individual patients (P# 1-13) (serum creatinine; [4]): 27.8% and 9.3% and 19.4% and 4.9% and 17.1% and 23.6% and 25.4% and −2.6% and 46.7%
- Percent change in serum creatinine, mean (M) of 13 patients (serum creatinine; [4]): 13.6%
- Effect on serum creatinine levels (serum creatinine; [5]): does not modify
- Serum creatinine levels once treatment was stopped after 7 days (serum creatinine; [6]): did not substantially change
- Uric acid excretion levels in the urine ([1]; after initiation of treatment, 50 mg qd Day 1 and Day 7, tid Days 2 to 6, hyperuricemia and gout): increased
- Percent change in Uu (mg/24 h), amount of uric acid excreted into the urine over 24 hours [1, 17]: 14.4% and 6.5% and −29.9% and 12.0% and −55.4% and 85.4% and 25.1% and 99.2% and 43.4% and −30.9% and −7.1% and 27.8%
- Percent change in Uu (mg/dL), concentration of uric acid in 24 hour urine [1, 17]: 32.7% and −13.4% and 4.0% and 15.5% and −77.6% and 91.7% and 106.9% and 71.3% and 13.1% and −24.6% and −32.7% and 54.8%
- Percent change in Uu (mg/24 h), amount of uric acid excreted into the urine over 24 hours [1, 18]: 4.6% and 21.3% and 43.8% and 18.3% and 1.0% and −7.0% and −11.6% and −18.9% and 7.9% and −13.3% and −22.8%
- Percent change in Uu (mg/dL), concentration of uric acid in 24 hour urine [1, 18]: −15.6% and 1.7% and −17.5% and −15.9% and −20.8% and −40.4% and −48.3% and −49.3% and −9.5% and −14.3% and −39.5%
- Percent change in Uu (mg/24 h), amount of uric acid excreted into the urine over 24 hours [1, 19]: 15.9%
- Percent change in Uu (mg/dL), concentration of uric acid in 24 hour urine [1, 19]: 20.1%
- Percent change in Uu (mg/24 h), amount of uric acid excreted into the urine over 24 hours [1, 20]: 2.1%
- Percent change in Uu (mg/dL), concentration of uric acid in 24 hour urine [1, 20]: −24.5%
- Percent change in Uc (mg/24 h), amount of creatinine excreted into the urine over 24 hours [2, 17]: 47.6% and 5.5% and −22.9% and −16.8% and 11.5% and −8.7% and −5.2% and −8.1% and −15.0% and −3.5% and −11.0% and 3.8%
- Percent change in Uc (mg/dL), concentration of creatinine in 24 hour urine [2, 17]: 71.2% and −14.5% and 14.4% and −14.1% and −44.2% and −5.6% and 56.8% and −21.0% and −33.0% and 5.4% and −35.5% and 25.6%
- Percent change in Uc (mg/24 h), amount of creatinine excreted into the urine over 24 hours [2, 18]: −14.5% and 19.2% and 15.4% and 10.8% and 7.9% and 5.9% and 5.6% and 21.6% and 5.8% and −4.8% and −10.8%
- Percent change in Uc (mg/dL), concentration of creatinine in 24 hour urine [2, 18]: −31.0% and 0.2% and −33.7% and −21.3% and −15.2% and −32.1% and −38.3% and −24.0% and −11.2% and −6.0% and −30.1%
- Percent change in Uc (mg/24 h), amount of creatinine excreted into the urine over 24 hours [2, 19]: −1.9%
- Percent change in Uc (mg/dL), concentration of creatinine in 24 hour urine [2, 19]: 0.5%
- Percent change in Uc (mg/24 h), amount of creatinine excreted into the urine over 24 hours [2, 20]: 5.6%
- Percent change in Uc (mg/dL), concentration of creatinine in 24 hour urine [2, 20]: −22.1%
- Percent change in FEu (fractional excretion uric acid) [3, 17]: −14.9% and 11.7% and −0.2% and 41.9% and −54.2% and 137.8% and 62.9% and 162.7% and 51.0% and −29.6% and 19.5% and 40.4%
- Percent change in FEu (fractional excretion uric acid) [3, 18]: 139.3% and 78.5% and 160.4% and 60.9% and 100.7% and 62.6% and 17.3% and 33.2% and 61.6% and 57.5% and 125.9%
- Percent change in FEu (fractional excretion uric acid) [3, 19]: 35.8%
- Percent change in FEu (fractional excretion uric acid) [3, 20]: 81.6%
- Percent change in CLc (clearance creatinine) (clearance creatinine; [17]): 35.1% and 2.5% and −24.4% and −14.2% and 16.2% and −22.4% and 0.7% and −4.1% and −2.7% and −1.3% and −11.8% and 11.2%
- Percent change in CLc (clearance creatinine) (clearance creatinine; [18]): −12.7% and 15.2% and 21.1% and 14.0% and 8.9% and 0.0% (2×) and −3.9% and 14.3% and 0.7% and −23.7%
- Percent change in CLc (clearance creatinine) (clearance creatinine; [19]): −1.3%
- Percent change in CLc (clearance creatinine) (clearance creatinine; [20]): 3.1%
